Assay results published in US10222368B2 (priority 2012, dated 2019).

Experiments:
[1] = target: T1, α7nAChR-FLNA complex (Homo sapiens, UniProt P21333); experiment: Lymphocyte co-immunoprecipitation / Western blot; assay type: cell-based
T1 construct: To determine the levels of FLNA-α7nAChR, FLNA-TLR4 and α7nAChR-Aβ42 complexes in the lymphocytes; endogenous in cells; host or cells: lymphocytes from venous blood of AD patients and control subjects (ex vivo)
Experimental: To prepare lymphocytes, 7 ml of venous blood was collected into an EDTA-containing collecting tube or S-monovette (Sarstedt, Newton, N.C.). […] The lymphocytes were washed twice by mixing with 6 ml oxygenated Kreb's-Ringer followed by centrifugation at 250×g for 10 minutes and re-suspension. […] To store lymphocytes, the lymphocyte pellet was resuspended in 250 μl ice-cold oxygenated Kreb's-Ringer containing 10% glycerol, and stored at −20° C. for 1 hour before storage at −80° C.
In the case that frozen lymphocyte samples were used, a lymphocyte suspension was gradually thawed by storing at −20° C. for 1 hour after removal from −80° C. and then at thawed at 4° C.
The incubation was terminated by adding 1 ml ice-cold Ca^2+-free Kreb's-Ringer containing 0.5 mM EGTA/0.1 mM EDTA, protease and phosphatase inhibitors followed by centrifugation. The resultant lymphocyte pellet was homogenized in 0.25 ml ice-cold immunoprecipitation buffer. […]
The membranes were then washed 3 times (1 minutes each) with 0.1% Tween-20 containing PBS and then once with distilled water for 1 minutes. The immunoreactivity was detected by a chemiluminutesescent method (Supersignal chemiluminutesescent reagents−Pierce/Thermo), and visualized by immediate exposure to X-ray film for 10-30 seconds (depending on the intensity of the signal). Specific protein bands were quantified by densitometric scanning (GS-800 calibrated densitometer, Bio-Rad Laboratories).
The membranes were then washed 3 times (1 minutes each) with 0.1% Tween®-20-containing PBS and then once with distilled water for 1 minute. The immunoreactivity was detected by a chemiluminutesescent method (Supersignal chemiluminutesescent reagents—Pierce/Thermo), and visualized by immediate exposure to X-ray film for 10-30 seconds (depending on the intensity of the signal). Specific protein bands were quantified by densitometric scanning (GS-800 calibrated densitometer, Bio-Rad Laboratories). The data are expressed as the ratio of α7nAChR/FLNA, TLR4/FLNA or α7nAChR/β-Actin optical intensities (in arbitrary units).

[2] = tested on: cytokines IL-6, TNFα and IL-1β; experiment: ICV Aβ42 infusion mouse model, cytokine fluorescence ELISA; assay type: in vivo; details: ICV Aβ42-infused mice; 10 mg/kg C0105 i.p.
Excerpt: FIG. 6 illustrates that Compound C0105 treatment of mice nearly abolishes Aβ42-induced cytokine production. […] Compound C0105 almost abolished the production of these 3 cytokines. n=7 or n=8.

[3] = target: T1, α7nAChR-FLNA complex; experiment: α7nAChR/FLNA ELISA of lymphocyte lysates (Example 7); assay type: cell-based; details: for Optical Density α7nAChR/FLNA (OD450), average: AD lymphocytes + 10 μM C0105, four replicate studies, background subtracted
Experimental: The capture antibody was the mouse anti-human Filamin A SC-17749 (Santa Cruz Biotechnology), and rabbit anti-human α7nAChR SC-5544 (Santa Cruz Biotechnology Santa Cruz Biotechnology) as the detection antibody. The assays were carried out in Santa Cruz Flat Bottom Plates.
PBS buffer used was 1×PBS (Mg-, and Ca-free) from Thermo Scientific, whereas PBST was 1×PBS+0.05% Tween®-20.
Coating buffer was prepared by dissolving 1.59 g of Na2CO3 in 0.9 L distilled H2O, to which was added 0.1 g NaN3 and 3.93 g of NaHCO3. The pH value was adjusted to 9.6, and the volume adjusted to 1 L with additional distilled H2O. Santa Cruz BSA blocking buffer supplemented with 1% BSA (sc-293965).
The HRP Detection Reagent (TMB) was prepared using 1-Step Ultra TMB-ELISA, (Cat#34028; Thermo Scientific). Standard protocol using 100 μl of the TMB substrate solution per each microplate well, followed by 10-15 minute incubation (or until color develops) and stopping reaction by adding 100 μl of 2 M sulfuric acid to each well. Absorbance (OD450) measured at 450 nm. Santa Cruz BSA blocking buffer was used supplemented with 1% BSA (SC-293965), and assays were carried out using a Molecular Devices Spectramax™ PLUS ELISA plate reader at 450 nm.
AD patient samples: 20 microtubes (labeled #1-#20; 100 ul volume each) with AD patients lymphocytes were received frozen on dry ice. Samples were kept at −20° C. freezer for 1 hour, following thawing at 4° C. […] Ice-cold PBS (300 μl) was added and entire contents were centrifuged to remove insoluble debris.
Normal patient sample was prepared by following procedure: 8 mL of venous blood was collected into cat#362761 BD Vacutainer™ CPT tube (cell preparation tube with sodium citrate) and following manufacturer's recommended protocol for white blood cells isolation (including two centrifugation/PBS wash steps). […] Ice-cold PBS (300 μl) was added and entire content was centrifuged to remove insoluble debris, resulting in “NP sample”.
Compound C0105 treatment was performed using AD patient white blood cells resuspended in 1×PBS and treated with: a) 10 μM Compound C0105 (final concentration), and b) control (PBS only) for 60 minutes at 37° C. (total volume is 400 μl of each sample).
Anti-Filamin A antibody (SC-17749) was diluted in Coating Buffer (at dilution ratio of 1:30) and 100 μl sample loaded per well and incubated 2.5 hours at room temperature (RT). The plate was covered with adhesive cover to prevent evaporation. Followed by washing of the microtiter plate with 150 μl of Blocking Buffer (supplemented with 1% BSA) and added 100 μl of Blocking Buffer to the wells for 30 minutes at RT.
AD samples (AD patients lymphocytes, as described above) were used to generate serial dilution series samples (dilution performed in PBS) and 100 μl sample loaded per well and incubated 1 hour at RT (total protein concentration is indicated as established by Bradford assay, as described above). The plate was covered with adhesive cover to prevent evaporation, followed by washing each well two times with 160 μl PBST Buffer.
After washing of the microtiter plate with washing buffer, 100 μl of α7nAChR primary antibody (SC-5544) were added per well (1:50 dilution ratio) in 1×PBS and incubated for 1 hour at RT.

[4] = target: FLNA association with α7nAChR (Mus musculus, UniProt Q8BTM8); experiment: ICV Aβ42 infusion mouse model, synaptosome co-immunoprecipitation; details: 10 mg/kg C0105 i.p. twice daily, 2 weeks; prefrontal cortex and hippocampus

T1 sequence (P21333 2-2647 limits assumed, one chain of several): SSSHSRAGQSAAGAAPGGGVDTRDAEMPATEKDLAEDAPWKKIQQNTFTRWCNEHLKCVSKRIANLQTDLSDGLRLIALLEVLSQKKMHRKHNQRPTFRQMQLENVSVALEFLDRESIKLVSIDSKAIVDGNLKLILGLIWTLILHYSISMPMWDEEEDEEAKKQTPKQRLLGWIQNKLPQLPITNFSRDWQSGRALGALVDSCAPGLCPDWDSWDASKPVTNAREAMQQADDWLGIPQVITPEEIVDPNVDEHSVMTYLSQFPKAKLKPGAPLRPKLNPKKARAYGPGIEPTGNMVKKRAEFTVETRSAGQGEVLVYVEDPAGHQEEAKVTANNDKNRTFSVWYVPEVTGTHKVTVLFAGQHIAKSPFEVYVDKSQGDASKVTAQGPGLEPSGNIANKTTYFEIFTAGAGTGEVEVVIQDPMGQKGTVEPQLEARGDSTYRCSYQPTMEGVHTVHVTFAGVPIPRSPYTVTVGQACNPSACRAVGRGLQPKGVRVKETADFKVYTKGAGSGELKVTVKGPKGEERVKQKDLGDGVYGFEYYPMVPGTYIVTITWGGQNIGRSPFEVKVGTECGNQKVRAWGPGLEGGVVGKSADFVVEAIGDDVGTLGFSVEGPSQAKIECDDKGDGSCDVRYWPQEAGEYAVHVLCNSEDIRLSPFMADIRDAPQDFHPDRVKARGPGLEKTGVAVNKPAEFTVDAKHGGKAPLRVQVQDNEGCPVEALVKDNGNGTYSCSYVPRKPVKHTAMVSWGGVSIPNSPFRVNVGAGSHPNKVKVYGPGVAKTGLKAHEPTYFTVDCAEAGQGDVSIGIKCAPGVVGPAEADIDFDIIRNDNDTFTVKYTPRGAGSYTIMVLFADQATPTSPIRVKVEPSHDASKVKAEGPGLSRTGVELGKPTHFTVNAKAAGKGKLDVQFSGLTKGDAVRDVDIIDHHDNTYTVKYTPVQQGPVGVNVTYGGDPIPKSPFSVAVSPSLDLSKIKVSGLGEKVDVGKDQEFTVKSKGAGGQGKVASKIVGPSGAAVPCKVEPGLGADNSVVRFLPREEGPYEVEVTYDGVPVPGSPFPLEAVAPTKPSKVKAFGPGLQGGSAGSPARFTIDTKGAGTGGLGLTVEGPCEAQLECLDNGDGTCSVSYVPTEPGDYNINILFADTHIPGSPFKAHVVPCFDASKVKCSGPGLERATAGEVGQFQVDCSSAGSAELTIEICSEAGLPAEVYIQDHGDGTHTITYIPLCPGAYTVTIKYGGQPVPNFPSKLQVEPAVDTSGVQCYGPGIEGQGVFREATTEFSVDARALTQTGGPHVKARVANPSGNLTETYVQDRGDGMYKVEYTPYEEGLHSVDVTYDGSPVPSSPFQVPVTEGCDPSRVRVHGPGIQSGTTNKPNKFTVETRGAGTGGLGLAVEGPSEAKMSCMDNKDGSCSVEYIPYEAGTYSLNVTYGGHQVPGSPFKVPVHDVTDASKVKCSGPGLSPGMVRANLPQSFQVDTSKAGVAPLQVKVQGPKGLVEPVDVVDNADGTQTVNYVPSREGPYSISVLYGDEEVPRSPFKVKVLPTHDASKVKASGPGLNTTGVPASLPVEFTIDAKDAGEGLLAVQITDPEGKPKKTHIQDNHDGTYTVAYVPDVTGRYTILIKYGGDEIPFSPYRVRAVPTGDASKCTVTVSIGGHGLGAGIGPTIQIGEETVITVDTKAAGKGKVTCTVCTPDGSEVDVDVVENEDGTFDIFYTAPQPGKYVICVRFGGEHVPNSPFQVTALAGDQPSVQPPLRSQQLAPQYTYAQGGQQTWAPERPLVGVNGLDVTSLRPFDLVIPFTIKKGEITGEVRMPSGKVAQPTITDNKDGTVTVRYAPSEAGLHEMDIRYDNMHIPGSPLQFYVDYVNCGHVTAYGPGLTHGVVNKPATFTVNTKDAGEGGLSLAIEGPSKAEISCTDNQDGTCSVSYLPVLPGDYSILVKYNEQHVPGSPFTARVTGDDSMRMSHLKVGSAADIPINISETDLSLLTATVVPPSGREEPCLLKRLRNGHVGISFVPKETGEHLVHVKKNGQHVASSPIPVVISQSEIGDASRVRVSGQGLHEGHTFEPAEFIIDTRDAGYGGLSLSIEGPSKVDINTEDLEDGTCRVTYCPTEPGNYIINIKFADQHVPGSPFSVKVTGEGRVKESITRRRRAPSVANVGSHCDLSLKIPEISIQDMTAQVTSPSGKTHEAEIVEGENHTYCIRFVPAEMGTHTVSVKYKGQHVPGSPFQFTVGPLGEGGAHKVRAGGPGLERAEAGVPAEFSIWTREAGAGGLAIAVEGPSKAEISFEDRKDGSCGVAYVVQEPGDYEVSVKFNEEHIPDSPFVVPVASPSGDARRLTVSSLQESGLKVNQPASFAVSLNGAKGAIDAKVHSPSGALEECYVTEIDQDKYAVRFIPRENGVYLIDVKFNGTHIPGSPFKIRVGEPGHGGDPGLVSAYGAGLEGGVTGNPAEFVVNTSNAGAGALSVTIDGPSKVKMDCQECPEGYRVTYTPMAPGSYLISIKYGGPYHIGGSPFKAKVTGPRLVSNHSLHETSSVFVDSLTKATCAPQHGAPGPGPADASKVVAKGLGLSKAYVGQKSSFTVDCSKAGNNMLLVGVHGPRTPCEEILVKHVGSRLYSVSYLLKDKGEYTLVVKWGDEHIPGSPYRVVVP

Compound: CN1CCC2(CC1)NCC(=O)N2Cc1ccccc1 [Compound C0105]
- inhibition at 0.001 µM ([1]; 1 nM C0105, 30 min, lymphocytes of 20 AD subjects, read-out: Reduction of α7nAChR/FLNA complex level (% inhibition)): ~50%
- Effect on amount of α7nAChR-FLNA complexes (in words), pilot study ([1]; 1 nM C0105, Aβ42-treated control and untreated AD lymphocytes): decreases the amount of α7nAChR-FLNA complexes
- Effect on α7nAChR/FLNA complex level (in words) ([1]; 1 nM C0105, lymphocytes of 10 YCI controls): no discernible effect
- Effect on Aβ42-induced IL-6 production (in words) [2]: completely abolished
- Suppression of IL-1β level [2]: 80%
- Suppression of TNF-α level [2]: 86%
- Effect on amount of α7nAChR associated with FLNA (in words) ([3]; 10 μM, AD lymphocytes): significant reduction
- Effect on amount of α7nAChR/FLNA complex (in words) ([3]; 10 μM, YCI lymphocyte preparation): substantially no difference
- Optical Density α7nAChR/FLNA (OD450), average ([3]; 1.25 (mg) lysate per well): 0.1572
- Optical Density α7nAChR/FLNA (OD450), average ([3]; 2.5 (mg) lysate per well): 0.2261
- Optical Density α7nAChR/FLNA (OD450), average ([3]; 5 (mg) lysate per well): 0.291
- Optical Density α7nAChR/FLNA (OD450), average ([3]; 10 (mg) lysate per well): 0.3349
- Optical Density α7nAChR/FLNA (OD450), average ([3]; 20 (mg) lysate per well): 0.4504
- Effect on Aβ42-induced FLNA association with α7nAChR (in words) [4]: reduced Aβ42-induced increases in FLNA associations
